Results reported in patent US20180265515A1 (Genentech, Inc., priority 2015, published 2018).

Experiments:
[1] = target: T1, isolated recombinant JAK1 kinase domain (Homo sapiens, UniProt P23458); assay: JAK1 enzyme assay (Caliper LabChip, Ki); format: biochemical; conditions: recombinant JAK1 kinase domain, 25 μM ATP
T1 construct: The activity of the isolated recombinant JAK1 and JAK2 kinase domain was measured
Protocol: (§1) JAK Enzyme Assays were Carried Out as Follows:
(§2) The activity of the isolated recombinant JAK1 and JAK2 kinase domain was measured by monitoring phosphorylation of a peptide derived from JAK3 (Val-Ala-Leu-Val-Asp-Gly-Tyr-Phe-Arg-Leu-Thr-Thr, fluorescently labeled on the N-terminus with 5-carboxyfluorescein) using the Caliper LabChip® technology (Caliper Life Sciences, Hopkinton, Mass.). […] Reactions were incubated at 22° C. in 384-well polypropylene microtiter plates for 30 minutes and then stopped by addition of 25 μL of an EDTA containing solution (100 mM HEPES buffer (pH 7.2), 0.015% Brij-35, 150 mM EDTA), resulting in a final EDTA concentration of 50 mM. After termination of the kinase reaction, the proportion of phosphorylated product was determined as a fraction of total peptide substrate using the Caliper LabChip® 3000 according to the manufacturer's specifications. Ki values were then determined using the Morrison tight binding model (Morrison, J. F., Biochim. Biophys. Acta. 185:269-296 (1969); William, J. W. and Morrison, J. F., Meth. Enzymol., 63:437-467 (1979)) modified for ATP-competitive inhibition [Ki=Ki,app/(1+[ATP]/Km,app)].

[2] = test system: JAK1-dependent STAT6 phosphorylation downstream of IL-13 stimulation in BEAS-2B human bronchial epithelial cells; assay: JAK1 pathway assay in BEAS-2B cells (IL-13 stimulated STAT6 phosphorylation, MSD); format: cell-based; conditions: read-out: P-STAT6 BEAS2B + IL13 IC50
Protocol: JAK1 Pathway Assay in Cell Lines was Carried Out as Follows:
Inhibitor potency (EC50) was determined in cell-based assays designed to measure JAK1 dependent STAT phosphorylation. As noted above, inhibition of IL-4, IL-13, and IL-9 signaling by blocking the Jak/Stat signaling pathway can alleviate asthmatic symptoms in pre-clinical lung inflammation models (Mathew et al., 2001, J Exp Med 193(9): 1087-1096; Kudlacz et. al., 2008, Eur J. Pharmacol 582(1-3): 154-161).
In one assay approach, TF-1 human erythroleukemia cells obtained from the American Type Culture Collection (ATCC; Manassas, Va.) were used to measure JAK1-dependent STAT6 phosphorylation downstream of IL-13 stimulation. Prior to use in the assays, TF-1 cells were starved of GM-CSF overnight in OptiMEM medium (Life Technologies, Grand Island, N.Y.) supplemented with 0.5% charcoal/dextran stripped fetal bovine serum (FBS), 0.1 mM non-essential amino acids (NEAA), and 1 mM sodium pyruvate. The assays were run in 384-well plates in serum-free OptiMEM medium using 300,000 cells per well. In a second assay approach, BEAS-2B human bronchial epithelial cells obtained from ATCC were plated at 100,000 cells per well of a 96-well plate one day prior to the experiment. The BEAS-2B assay was run in complete growth medium (bronchial epithelial basal medium plus bulletkit; Lonza; Basel, Switzerland).
Test compounds were serially diluted 1:2 in DMSO and then diluted 1:50 in medium just before use. Diluted compounds were added to the cells, for a final DMSO concentration of 0.2%, and incubated for 30 min (for the TF-1 assay) or 1 hr (for the BEAS-2B assay) at 37° C. Then, cells were stimulated with human recombinant cytokine at their respective EC90 concentrations, as previously determined for each individual lot. Cells were stimulated with IL-13 (R&D Systems, Minneapolis, Minn.) for 15 min at 37° C. The TF-1 cell reactions were stopped by the direct addition of 10× lysis buffer (Cell Signaling Technologies, Danvers, Mass.), whereas the BEAS-2B cell incubations were halted by the removal of medium and addition of 1× lysis buffer. The resultant samples were frozen in the plates at −80° C. Compound mediated inhibition of STAT6 phosphorylation was measured in the cell lysates using MesoScale Discovery (MSD) technology (Gaithersburg, Md.). EC50 values were determined as the concentration of compound required for 50% inhibition of STAT phosphorylation relative to that measured for the DMSO control.

[3] = target: T2, isolated recombinant JAK2 kinase domain (Homo sapiens, UniProt O60674); assay: JAK2 enzyme assay (Caliper LabChip, Ki); format: biochemical; conditions: 25 μM ATP
T2 construct: The activity of the isolated recombinant JAK1 and JAK2 kinase domain was measured
T2 sequence (O60674 849-1124 limits assumed): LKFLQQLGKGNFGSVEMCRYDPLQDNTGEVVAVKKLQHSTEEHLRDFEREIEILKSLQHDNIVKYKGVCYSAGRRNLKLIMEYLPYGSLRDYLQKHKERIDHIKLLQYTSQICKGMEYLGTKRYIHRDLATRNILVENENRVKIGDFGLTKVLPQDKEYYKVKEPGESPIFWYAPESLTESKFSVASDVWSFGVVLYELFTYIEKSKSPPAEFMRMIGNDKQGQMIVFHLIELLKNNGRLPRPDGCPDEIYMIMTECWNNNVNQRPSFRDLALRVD
Protocol: as §1, §2

T1 sequence (P23458 875-1153 limits assumed): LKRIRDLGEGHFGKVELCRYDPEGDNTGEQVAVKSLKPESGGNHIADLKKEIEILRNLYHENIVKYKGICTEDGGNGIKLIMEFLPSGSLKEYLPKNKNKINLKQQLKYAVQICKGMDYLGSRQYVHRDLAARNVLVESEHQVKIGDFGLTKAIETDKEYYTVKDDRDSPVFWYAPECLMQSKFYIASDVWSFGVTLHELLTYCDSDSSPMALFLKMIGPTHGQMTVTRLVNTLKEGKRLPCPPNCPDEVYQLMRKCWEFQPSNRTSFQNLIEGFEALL

| SMILES | Ki [1] | Ki [3] | IC50 [2] |
| --- | --- | --- | --- |
| CSc1ccc(OC(F)F)c(-c2n[nH]cc2NC(=O)c2cnn3cccnc23)c1 [Example 1, N-(3-(2-(difluoromethoxy)-5-(methylthio)phenyl)-1H-pyrazol-4-yl)pyrazolo[1,5-a]pyrimidine-3-carboxamide] | 0.079 nM | 0.041 nM | 2.6 nM |
| CSc1ccc(OC(F)F)c(-c2nn(CC(=O)N3CCC(N(C)CCC#N)CC3)cc2NC(=O)c2cnn3cccnc23)c1 [Example 2, N-[1-[2-[4-[2-cyanoethyl(methyl)amino]-1-piperidyl]-2-oxo-ethyl]-3-[2-(difluoromethoxy)-5-methylsulfanyl-phenyl]pyrazol-4-yl]pyrazolo[1,5-a]pyrimidine-3-carboxamide] | 0.28 nM | 0.42 nM | 25 nM |
| C[S+]([O-])c1ccc(OC(F)F)c(-c2n[nH]cc2NC(=O)c2cnn3cccnc23)c1 (stereo not drawn) [Example 3, N-[3-[2-(difluoromethoxy)-5-methylsulfinyl-phenyl]-1H-pyrazol-4-yl]pyrazolo[1,5-a]pyrimidine-3-carboxamide] | 1.7 nM | 0.57 nM | 430 nM |
| CS(=O)(=O)c1ccc(OC(F)F)c(-c2n[nH]cc2NC(=O)c2cnn3cccnc23)c1 [Example 4, N-[3-[2-(difluoromethoxy)-5-methylsulfonyl-phenyl]-1H-pyrazol-4-yl]pyrazolo[1,5-a]pyrimidine-3-carboxamide] | 0.45 nM | 0.16 nM | 35 nM |
| CSc1ccc(OC(F)F)c(-c2nn(CC(=O)N3CCC(N4CCOCC4)CC3)cc2NC(=O)c2cnn3cccnc23)c1 [Example 5, N-(3-(2-(difluoromethoxy)-5-(methylthio)phenyl)-1-(2-(4-morpholinopiperidin-1-yl)-2-oxoethyl)-1H-pyrazol-4-yl)pyrazolo[1,5-a]pyrimidine-3-carboxamide] | 0.29 nM | 0.4 nM | 15 nM |
| CCN1CCN(C(=O)Cn2cc(NC(=O)c3cnn4cccnc34)c(-c3cc(SC)ccc3OC(F)F)n2)CC1 [Example 6, N-[3-[2-(difluoromethoxy)-5-methylsulfanyl-phenyl]-1-[2-(4-ethylpiperazin-1-yl)-2-oxo-ethyl]pyrazol-4-yl]pyrazolo[1,5-a]pyrimidine-3-carboxamide] | 0.49 nM | 0.61 nM | 18 nM |
| CSc1ccc(OC(F)F)c(-c2nn(CC(=O)N3CCC(CN4CCOCC4)CC3)cc2NC(=O)c2cnn3cccnc23)c1 [Example 7, N-[3-[2-(difluoromethoxy)-5-methylsulfanyl-phenyl]-1-[2-[4-(morpholinomethyl)-1-piperidyl]-2-oxo-ethyl]pyrazol-4-yl]pyrazolo[1,5-a]pyrimidine-3-carboxamide] | 0.3 nM | 0.49 nM | 4.8 nM |
| CSc1ccc(OC(F)F)c(-c2nn(CC(=O)N3CCC(NCCC#N)CC3)cc2NC(=O)c2cnn3cccnc23)c1 [Example 8, N-[1-[2-[4-(2-cyanoethylamino)-1-piperidyl]-2-oxo-ethyl]-3-[2-(difluoromethoxy)-5-methylsulfanyl-phenyl]pyrazol-4-yl]pyrazolo[1,5-a]pyrimidine-3-carboxamide] | 0.29 nM | 0.39 nM | 18 nM |
| CSc1ccc(OC(F)F)c(-c2nn([C@H]3CCCNC3)cc2NC(=O)c2cnn3cccnc23)c1 [Example 9, N-[3-[2-(difluoromethoxy)-5-methylsulfanyl-phenyl]-1-[(3S)-3-piperidyl]pyraxol-4-yl]pyrazolo[1,5-a]pyrimidine-3-carboxamide] | 0.44 nM | 0.28 nM | 5.2 nM |
| CSc1ccc(OC(F)F)c(-c2nn(CCN[C@H]3CCOC3)cc2NC(=O)c2cnn3cccnc23)c1 [Example 10, N-[3-[2-(difluoromethoxy)-5-methylsulfanyl-phenyl]-1-[2-[[(3S)-tetrahydrofuran-3-yl]amino]ethyl]pyrazol-4-yl]pyrazolo[1,5-a]pyrimidine-3-carboxamide] | 0.49 nM | 0.27 nM | 8.8 nM |
| CSc1ccc(OC(F)F)c(-c2nn(CCN[C@@H]3CCOC3)cc2NC(=O)c2cnn3cccnc23)c1 [Example 11, (R)—N-(3-(2-(difluoromethoxy)-5-(methylthio)phenyl)-1-(2-((tetrahydrofuran-3-yl)amino)ethyl)-1H-pyrazol-4-yl)pyrazolo[1,5-a]pyrimidine-3-carboxamide] | 0.32 nM | 0.21 nM | 5.9 nM |
| CSc1ccc(OC(F)F)c(-c2nn([C@H]3CCCN(C)C3)cc2NC(=O)c2cnn3cccnc23)c1 [Example 12, (S)—N-(3-(2-(difluoromethoxy)-5-(methylthio)phenyl)-1-(1-methylpiperidin-3-yl)-1H-pyrazol-4-yl)pyrazolo[1,5-a]pyrimidine-3-carboxamide] | 0.41 nM | 0.32 nM | 6 nM |

Continued, in another order:

| Ki [1] | Ki [3] | SMILES | IC50 [2] |
| --- | --- | --- | --- |
| 0.44 nM | 0.9 nM | CSc1ccc(OC(F)F)c(-c2nn(CC(=O)N3CCC(N(C)CC(=O)N(C)C)CC3)cc2NC(=O)c2cnn3cccnc23)c1 [Example 13, N-[3-[2-(difluoromethoxy)-5-methylsulfanyl-phenyl]-1-[2-[4-[[2-(dimethylamino)-2-oxo-ethyl]-methyl-amino]-1-piperidyl]-2-oxo-ethyl]pyrazol-4-yl]pyrazolo[1,5-a]pyrimidine-3-carboxamide] | 57 nM |
| 0.32 nM | 0.68 nM | CSc1ccc(OC(F)F)c(-c2nn(CC(=O)N3CCC(N(C)CC(=O)N4CCCC4)CC3)cc2NC(=O)c2cnn3cccnc23)c1 [Example 14] | 89 nM |
| 0.28 nM | 0.38 nM | CSc1ccc(OC(F)F)c(-c2nn(CC(=O)N3CCC(N4CCNC(=O)C4)CC3)cc2NC(=O)c2cnn3cccnc23)c1 [Example 15, N-[3-[2-(difluoromethoxy)-5-methylsulfanyl-phenyl]-1-[2-oxo-2-[4-(3-oxopiperazin-1-yl)-1-piperidyl]ethyl]pyrazol-4-yl]pyrazolo[1,5-a]pyrimidine-3-carboxamide] | 310 nM |
| 0.39 nM | 0.5 nM | CSc1ccc(OC(F)F)c(-c2nn(CC(=O)N3CCN(CCN4CCOCC4)CC3)cc2NC(=O)c2cnn3cccnc23)c1 [Example 16, N-[3-[2-(difluoromethoxy)-5-methylsulfanyl-phenyl]-1-[2-[4-(2-morpholinoethyl)piperazin-1-yl]-2-oxo-ethyl]pyrazol-4-yl]pyrazolo[1,5-a]pyrimidine-3-carboxamide] | 18 nM |
| 0.27 nM | 0.53 nM | CSc1ccc(OC(F)F)c(-c2nn(CC(=O)N3CCC(N(C)CCCC#N)CC3)cc2NC(=O)c2cnn3cccnc23)c1 [Example 17, N-[1-[2-[4-[3-cyanopropyl(methyl)amino]-1-piperidyl]-2-oxo-ethyl]-3-[2-(difluoromethoxy)-5-methylsulfanyl-phenyl]pyrazol-4-yl]pyrazolo[1,5-a]pyrimidine-3-carboxamide] | 5 nM |
| 0.24 nM | 0.37 nM | CSc1ccc(OC(F)F)c(-c2nn(CC(=O)N3CCC(N4CCC(C#N)CC4)CC3)cc2NC(=O)c2cnn3cccnc23)c1 [Example 18, N-[1-[2-[4-(4-cyano-1-piperidyl)-1-piperidyl]-2-oxo-ethyl]-3-[2-(difluoromethoxy)-5-methylsulfanyl-phenyl]pyrazol-4-yl]pyrazolo[1,5-a]pyrimidine-3-carboxamide] | 6 nM |
